Results as given in patent US20230165872A1, “COMBINATION OF BCMA-DIRECTED T CELL THERAPY AND AN IMMUNOMODULATORY COMPOUND” (Juno Therapeutics, Inc., priority 2020, published 2023).

Assays:
Aiolos = experiment: Intracellular Aiolos expression in BCMA-bead stimulated anti-BCMA CAR T cells (flow cytometry, MFI); type: cell-based, human; conditions: CD4+CAR+ or CD8+CAR+ cells; 24 or 72 hours; lenalidomide 1000 nM, Compound A 1, 10, 100 nM, Compound B 0.1, 1, 10 nM
Procedure: A BCMA-Fc fusion protein containing the extracellular domain of human BCMA and a human IgG1Fc was conjugated to beads by covalently coupling to the surface of commercially available tosyl-activated magnetic beads having a diameter of approximately […] (M-450 beads, ThermoFisher, Waltham Mass.) (see e.g. International published PCT App. No. WO2019/027850). Following incubation, anti-BCMA CAR-expressing T cells were stained with antibodies and analyzed by flow cytometry to assess intracellular levels of Ikaros and Aiolos in CD4+CAR+ or CD8+CAR+ cells, as measured by median fluorescence intensity (MFI). Median fluorescence intensity (MFI) values for Ikaros and Aiolos were normalized and calculated as a percentage relative to vehicle control.

Aiolos and Ikaros = conditions: compared with lenalidomide and pomalidomide; cited from earlier work
RPMI-8226 target cells = experiment: Acute co-culture cytokine secretion of anti-BCMA CAR T cells with RPMI-8226; type: cell-based, human; conditions: RPMI-8226, E:T 1:1, 24 hours, 0.01-10,000 nM, FIG. 2A
Procedure: Anti-tumor effects of anti-BCMA CAR T cells, alone and in combination with cell immunomodulatory compounds Compound A (iberdomide, (S)-3-[4-(4-morpholin-4-ylmethyl-benzyloxy)-1-oxo-1,3-dihydro-isoindol-2-yl]-piperidine-2,6-dione) or Compound B ((S)-4-(4-(4-(((2-(2,6-dioxopiperidin-3-yl)-1-oxoisoindolin-4-yl)oxy)methyl)benzyl)piperazin-1-yl)-3-fluorobenzonitrile), were assessed in two different BCMA-expressing target multiple myeloma cell lines RPMI-8226 or OPM-2. Anti-BCMA CAR+ T cells were generated as described in Example 1.
The anti-BCMA CAR-expressing T cells were incubated with target cells, RPMI 8226 (BCMA^med human multiple myeloma cell line) or OPM2 cells (BCMA^med human multiple myeloma cell line) target cells, at an E:T ratio of 1:1. The co-culture incubation with target cells was carried out in the presence of Compound A (0.01 nM, 0.1 nM, 1 nM, 10 nM, 100 nM, 1000 nM, or 10,000 nM) or Compound B (0.01 nM, 0.1 nM, 1 nM, 10 nM, 100 nM, 1000 nM, or 10,000 nM).

anti-BCMA CAR T cells = experiment: Viability and count of anti-BCMA CAR T cells after 7-day chronic stimulation with BCMA-conjugated beads; type: cell-based, human
Procedure: Cryofrozen anti-BCMA CAR T cells, produced substantially as described in Example 1 and formulated at a 1:1 ratio of CD4+ and CD8^+ T cells, were thawed. To subject cells to chronic stimulation conditions, the anti-BCMA CAR+ T cells were stimulated with 50 μg BCMA conjugated beads (diameter about 4.5 μm from a 50 μg/ml BCMA-conjugated bead composition, generated as described in Example 2) at a ratio of T cells to beads of 1:1 in the presence or absence of Compound A (iberdomide, (S)-3-[4-(4-morpholin-4-ylmethyl-benzyloxy)-1-oxo-1,3-dihydro-isoindol-2-yl]-piperidine-2,6-dione) (1 nM or 10 nM), Compound B ((S)-4-(4-(4-(((2-(2,6-dioxopiperidin-3-yl)-1-oxoisoindolin-4-yl)oxy)methyl)benzyl)piperazin-1-yl)-3-fluorobenzonitrile) (0.1 nM or 1 nM), or DMSO vehicle control. The cells were then incubated at 37° C., 5% CO2 for 7 days.
At day 7, anti-BCMA CAR cells of all the samples were counted using a cellometer machine and stained for flow cytometric analysis. Cells were stained with a viability dye and analyzed by flow cytometry. Viability and count of anti-BCMA CAR T cells was increased in the presence of Compound A or Compound B.
Cryofrozen anti-BCMA CAR T cells, produced substantially as described in Example 1 and formulated at a 1:1 ratio of CD4+ and CD8+ T cells, were thawed. […] The cells were then incubated at 37° C., 5% CO2 for 7 days.
At day 7, anti-BCMA CAR cells of all the samples were counted using a cellometer machine and stained for flow cytometric analysis. Cells were stained with a viability dye and analyzed by flow cytometry.

[1] = tested on: Irradiated DF-15R target cells; experiment: Serial stimulation assay of anti-BCMA CAR T cells; type: cell-based, human
Procedure: A serial stimulation assay or serial re-challenge assay was used to assess activity of anti-BCMA CAR T cells following repeated rounds of antigen stimulation, in the presence and absence of Compound A (iberdomide, (S)-3-[4-(4-morpholin-4-ylmethyl-benzyloxy)-1-oxo-1,3-dihydro-isoindol-2-yl]-piperidine-2,6-dione).
Anti-BCMA CAR+ T cells (generated as described in Example 1) were plated in triplicate at 1×10^5 cells/well on 96-well plates. Irradiated DF-15R target cells, which is a multiple myeloma (MM) cell line generated to be resistant to effect of cell immunomodulatory compounds (Lopez-Girona et al. Leukemia, 2012; 26:2326-2335), were added at an effector-to-target (E:T) ratio of 1:2 in the presence or absence of various concentrations (10 nM) of Iberdomide.
Every 3-4 days (start of each new round), CAR T cells were counted. Cells then were harvested and re-plated at the initial seeding density with fresh media, newly-added Iberdomide at the same concentration, where applicable, and newly-thawed, irradiated target cells. Five rounds of stimulation were carried out during a 19 day culture period. At day 5 and day 9 (24 hours after a re-plating (reset) cytokine production in the supernatant was assessed. Results were assessed in two different donors.

CAR-expressing T cells = experiment: Prolonged treatment: long-term proliferative potential of CAR-expressing T cells; type: cell-based; design: long term product performance: dose or concentration left out as unconfirmed
lymphoma cells = conditions: cited from earlier work
[2] = Example 3: day 7, Compound A 1 or 10 nM, Compound B 0.1 or 1 nM
[3] = Example 7: day 7, lenalidomide 1000 nM, Compound A 0.1, 1 or 10 nM, FIG. 8
[4] = 24 hours after first reset (day 5) or second reset (day 9), FIG. 5B

Q: Which “intracellular Aiolos expression (MFI, percentage relative to vehicle control)” value (Aiolos) does the source give for `O=C1CC[C@H](N2Cc3c(OCc4ccc(CN5CCOCC5)cc4)cccc3C2=O)C(=O)N1` [Compound A, (S)-3-[4-(4-morpholin-4-ylmethyl-benzyloxy)-1-oxo-1,3-dihydro-isoindol-2-yl]-piperidine-2,6-dione] here?
A: The value was “concentration dependent decrease”.

Q: And the “efficiency of degrading Aiolos and Ikaros” value (Aiolos and Ikaros)?
A: The value was “more efficient at degrading Aiolos and Ikaros than lenalidomide and pomalidomide”.

Q: What about the “CAR T cytokine production (IL-2, TNFα, IFN-gamma in supernatant)” value (RPMI-8226 target cells) of the same molecule?
A: Its value is “enhanced”.

Q: And the “count of anti-BCMA CAR T cells” value (anti-BCMA CAR T cells; [2])?
A: Its value is “increased”.

Q: What about the “viability of anti-BCMA CAR T cells” value (anti-BCMA CAR T cells; [2]) of the same molecule?
A: The value was “increased”.

Q: What about the “count of anti-BCMA CAR T cells” value (anti-BCMA CAR T cells; [3]) of the same molecule?
A: The value was “increased”.

Q: What about the “viability of anti-BCMA CAR T cells” value (anti-BCMA CAR T cells; [3]) of the same molecule?
A: The value was “increased”.

Q: And the “anti-BCMA CAR cell counts (number of population doublings)” value ([1]; 10 nM, E:T 1:2, five rounds over 19 days, two donors, FIG. 5A)?
A: Its value is “enhanced”.

Q: What about the IL-2 production [1, 4] of the same molecule?
A: The IL-2 production was “increased”.

Q: And the TNF-alpha production [1, 4]?
A: The TNF-alpha production was “increased”.

Q: What about the “long term product performance” value (CAR-expressing T cells; higher concentrations) of the same molecule?
A: Its value is “detrimental”.

Q: What about the “long-term proliferative potential of CAR-expressing T cells” value (CAR-expressing T cells; prolonged treatment, 10 or 100 nM) of the same molecule?
A: Its value is “increase long-term proliferative potential”.

Q: And the “direct anti-proliferative effects on lymphoma cells” value (lymphoma cells)?
A: Its value is “potent direct anti-proliferative effects”.
